According to patent publication US7579180B2, “Beta secretase polypeptides” (Amgen Inc., priority 1999, dated 2009):

Experiments:
[1] = biological target: T1, human beta-secretase-Fc fusion (Homo sapiens, UniProt P56817); experiment: Beta-secretase activity assay: cleavage of DNP-labeled APP peptides, HPLC; format: biochemical; conditions: peptide substrate 20 μM, pH 5.0, about 6 hours, room temperature; FIG. 11
T1 construct: A plasmid containing cDNA encoding amino acids 1-460 of beta-secretase fused to the Fc portion of human IgG; made in house; host or cells: human embryonic kidney 293T cells, stably transfected; purified from conditioned medium on protein A
T1 sequence (P56817 with tags, fused parts or gaps limits assumed): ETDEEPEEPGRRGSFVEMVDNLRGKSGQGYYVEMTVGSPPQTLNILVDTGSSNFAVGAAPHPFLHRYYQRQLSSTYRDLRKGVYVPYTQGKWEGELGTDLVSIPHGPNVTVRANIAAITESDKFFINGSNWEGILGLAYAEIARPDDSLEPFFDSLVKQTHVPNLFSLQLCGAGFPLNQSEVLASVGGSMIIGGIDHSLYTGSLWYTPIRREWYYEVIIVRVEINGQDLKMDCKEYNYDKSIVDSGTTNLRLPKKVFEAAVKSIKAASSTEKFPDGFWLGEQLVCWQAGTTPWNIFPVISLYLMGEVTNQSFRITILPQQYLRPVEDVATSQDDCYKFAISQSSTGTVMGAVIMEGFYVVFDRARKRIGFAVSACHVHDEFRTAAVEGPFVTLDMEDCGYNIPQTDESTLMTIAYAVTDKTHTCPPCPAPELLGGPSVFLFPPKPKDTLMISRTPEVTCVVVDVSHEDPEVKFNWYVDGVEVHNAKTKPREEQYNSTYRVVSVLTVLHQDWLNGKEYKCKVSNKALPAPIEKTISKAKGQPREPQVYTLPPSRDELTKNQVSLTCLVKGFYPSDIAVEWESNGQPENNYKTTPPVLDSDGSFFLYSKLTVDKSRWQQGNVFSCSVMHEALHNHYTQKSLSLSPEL
Protocol: FIG. 11 is a graph depicting the ability of human beta-secretase-Fc fusion to cleave various APP peptides. The X-axis is the amount of enzyme in the reaction mixture and the Y-axis is the amount of cleavage (denoted as pmol product formed) of each of three substrate peptides. “Sw” refers to the APP peptide with the Swedish mutation; “Wt” refers to wild type APP peptide; and “MV” refers to a mutated APP peptide.
Recombinant native as well as mutant beta secretase polypeptides were assayed for activity by measuring the ability of the molecule to cleave various A-beta peptides.
Each assay was conducted as follows. […] Quenched reactions were analyzed by HPLC on a 5 μm, C18 reversed-phase column (Sephasil Peptide, 4.6×100 mm; Amersham Pharmacia Biotech, Piscataway, N.J.) using first a linear gradient of 18-31.5 percent acetonitrile in 0.1 percent TFA over 40 minutes, then 31.5-81 percent acetonitrile for 1 minute, then 81 percent acetonitrile for 4 minutes, and then returning to 18-percent acetonitrile for several minutes to reequilibrate the column. […] Proteolysis of the Sw and WT octapeptides was evaluated using a linear gradient of 27-37.8 percent acetonitrile over 24 minutes on the same column.
Both product and substrate were monitored by absorbance at 360 nm. […]
The concentration of standard was determined from the extinction coefficient of DNP (e365nm=16 mM^−1cm^−1). […]

[2] = test system: 293T-APPsw101 cell line; experiment: Assay for the 42 amino acid form of A-beta in medium of transfected cells; format: cell-based, human; conditions: Single Clone
Protocol: (§1) A duplicate of each master cDNA 96 well plate was prepared. Each well of the duplicate plate contained about 75 microliters of Optimem I medium (Life Technologies Inc, Gaithersburg, Md.) and about 300 ng of cDNA library. About 75 microliters of a mixture of 12 microliters DMRIE-C Lipid per ml of Optimem I medium (Life Technologies Inc., Gaithersburg, Md.) was added to each well of the 96 well plate using a Multipette (Sagian Inc. Indianapolis, Ind.) robotic pipettor. The DMRIE C was allowed to complex for about 30 minutes. Meanwhile, the media was removed from a 96 well dish in which each well had been plated with about 15,000 cells/well of the 293T-APPsw 101 cell line two days before. About 125 microliters of the DNA/Lipid complex was added to each well of cells. The cells containing the DNA/lipid mixture were then incubated at 37 degrees C., 5 percent CO2 for about five hours. After incubation, 125 μl Optimem I supplemented with 20 percent FBS and 2× Penicillin/Streptomycin (0.1 unit/ml Penicillin, 0.1 μg/ml Streptomycin) (Life Technologies Inc., Gaithersburg, Md.) was added to stop the transfection. […] The medium from each well was then harvested, diluted 1:1 in Superblock (Pierce Inc., Rockford, Ill.), stamped into pre-coated ELISA plates and analyzed for the presence of A-beta as described below. […]

[3] = test system: 293T-APPsw101 cell line; experiment: Assay for total beta amyloid peptide in medium of transfected cells; format: cell-based, human; conditions: Single Clone; diluted 1:10 into pCMVi vector DNA; average of duplicate transfections
Protocol: as §1

Substance | cleavage of substrate peptide (pmol product formed), preference by the enzyme [1] | A-beta 42/Total [2] | A-beta 42 ([2]; diluted 1:10 into pCMVi vector DNA, average of duplicate transfections) | Total [3]
EVKMDAEF [Wt] | preferred over the methionine to valine mutant (MV) substrate |  |  | 
EVNLDAEF [Sw] | clearly preferred by the enzyme over the wild type (Wt) substrate |  |  | 
Single Clone (β-Secretase): single cDNA clone from pool A-11 encoding human beta-secretase (SEQ ID NO:1) |  | 1.1 | 327,505 total Europium counts | 295,438 total Europium counts
